Reference: the supplement of paper PMC10307832

What was measured:
Assay in all cases: relative viability (nuclei count vs DMSO), 5 days (fraction); higher = more cells survive
[1] = compound: C1COCCN1C2=NC(=NC3=C2OC4=C3C=CC=N4)C5=CC(=CC=C5)NC(=O)C6=CN=C(C=C6)N + CC(=O)c1c(C)c2cnc(Nc3ccc(N4CCNCC4)cn3)nc2n(C2CCCC2)c1=O [Palbociclib] (partner 0.5 µM)
Procedure, shortened: (§1)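 Lung cancer cell lines, seeded in 1536-well plates, were treated the following day by pin tool with a single drug or with five library-drug doses (not always all listed) in √10 steps on top of a fixed anchor-drug dose. Cells were fixed and nuclei stained in one step after 5 days, and nuclei were counted. Relative viability is the nuclei count for treated wells divided by that for vehicle wells, reported as medians of duplicate plates.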

[2] = compound: C1COCCN1C2=NC(=NC3=C2OC4=C3C=CC=N4)C5=CC(=CC=C5)NC(=O)C6=CN=C(C=C6)N + CC(C)C[C@H](NC(=O)[C@H](Cc1ccccc1)NC(=O)c1cnccn1)B(O)O [Bortezomib] (partner 0.002 µM)
Procedure, shortened: as §1

SGI-1776 + Linsitinib = compound: CN1CCC(CNc2ccc3ncc(-c4cccc(OC(F)(F)F)c4)n3n2)CC1 [SGI-1776] + C[C@]1(O)C[C@@H](c2nc(-c3ccc4ccc(-c5ccccc5)nc4c3)c3c(N)nccn32)C1 [Linsitinib] (partner 1 µM)
Procedure, shortened: as §1

Entinostat + OSI-027 = compound: Nc1ccccc1NC(=O)c1ccc(CNC(=O)OCc2cccnc2)cc1 [Entinostat] + COc1cccc2cc(-c3nc([C@H]4CC[C@H](C(=O)O)CC4)n4ncnc(N)c34)[nH]c12 [OSI-027] (partner 0.5 µM)
Procedure, shortened: as §1

## HCC-366
[1]; first compound 0.02 µM
  relative viability: 0.397
[1]; first compound 0.06325 µM
  relative viability: 0.435
[1]; first compound 0.2 µM
  relative viability: 0.367
[1]; first compound 0.6325 µM
  relative viability: 0.419
[1]; first compound 2 µM
  relative viability: 0.22
[2]; first compound 0.02 µM
  relative viability: 1.43
[2]; first compound 0.06325 µM
  relative viability: 1.23
[2]; first compound 0.2 µM
  relative viability: 1.09
[2]; first compound 0.6325 µM
  relative viability: 1.11
[2]; first compound 2 µM
  relative viability: 0.525
SGI-1776 + Linsitinib; first compound 0.08 µM
  relative viability: 0.731
SGI-1776 + Linsitinib; first compound 0.8 µM
  relative viability: 0.697
SGI-1776 + Linsitinib; first compound 2.53 µM
  relative viability: 0.633
SGI-1776 + Linsitinib; first compound 8 µM
  relative viability: 0.413
Entinostat + OSI-027; first compound 0.02 µM
  relative viability: 0.922
Entinostat + OSI-027; first compound 0.06325 µM
  relative viability: 0.972
Entinostat + OSI-027; first compound 0.2 µM
  relative viability: 0.854
Entinostat + OSI-027; first compound 0.6325 µM
  relative viability: 0.214
Entinostat + OSI-027; first compound 2 µM
  relative viability: 0.0783

## HCC-827
[1]; first compound 0.02 µM
  relative viability: 0.392
[1]; first compound 0.06325 µM
  relative viability: 0.537
[1]; first compound 0.2 µM
  relative viability: 0.491
[1]; first compound 0.6325 µM
  relative viability: 0.538
[1]; first compound 2 µM
  relative viability: 0.34
[2]; first compound 0.02 µM
  relative viability: 1.07
[2]; first compound 0.06325 µM
  relative viability: 1.07
[2]; first compound 0.2 µM
  relative viability: 1.17
[2]; first compound 0.6325 µM
  relative viability: 1.15
[2]; first compound 2 µM
  relative viability: 1.08
SGI-1776 + Linsitinib; first compound 0.08 µM
  relative viability: 0.961
SGI-1776 + Linsitinib; first compound 0.8 µM
  relative viability: 0.978
SGI-1776 + Linsitinib; first compound 2.53 µM
  relative viability: 0.952
SGI-1776 + Linsitinib; first compound 8 µM
  relative viability: 0.875
Entinostat + OSI-027; first compound 0.02 µM
  relative viability: 0.713
Entinostat + OSI-027; first compound 0.06325 µM
  relative viability: 0.749
Entinostat + OSI-027; first compound 0.2 µM
  relative viability: 0.688
Entinostat + OSI-027; first compound 0.6325 µM
  relative viability: 0.402
Entinostat + OSI-027; first compound 2 µM
  relative viability: 0.292

## HOP-62
[1]; first compound 0.02 µM
  relative viability: 0.529
[1]; first compound 0.06325 µM
  relative viability: 0.513
[1]; first compound 0.2 µM
  relative viability: 0.444
[1]; first compound 0.6325 µM
  relative viability: 0.426
[1]; first compound 2 µM
  relative viability: 0.182
[2]; first compound 0.02 µM
  relative viability: 0.743
[2]; first compound 0.06325 µM
  relative viability: 0.848
[2]; first compound 0.2 µM
  relative viability: 0.897
[2]; first compound 0.6325 µM
  relative viability: 0.967
[2]; first compound 2 µM
  relative viability: 0.291
SGI-1776 + Linsitinib; first compound 0.08 µM
  relative viability: 0.823
SGI-1776 + Linsitinib; first compound 0.8 µM
  relative viability: 0.877
SGI-1776 + Linsitinib; first compound 2.53 µM
  relative viability: 1.23
SGI-1776 + Linsitinib; first compound 8 µM
  relative viability: 1.04
Entinostat + OSI-027; first compound 0.02 µM
  relative viability: 0.801
Entinostat + OSI-027; first compound 0.06325 µM
  relative viability: 0.882
Entinostat + OSI-027; first compound 0.2 µM
  relative viability: 0.85
Entinostat + OSI-027; first compound 0.6325 µM
  relative viability: 0.49
Entinostat + OSI-027; first compound 2 µM
  relative viability: 0.248

## IA-LM
[2]; first compound 0.06325 µM
  relative viability: 0.78
[2]; first compound 0.2 µM
  relative viability: 0.537
[2]; first compound 0.6325 µM
  relative viability: 0.645
[2]; first compound 2 µM
  relative viability: 0.39
SGI-1776 + Linsitinib; first compound 0.08 µM
  relative viability: 0.732
SGI-1776 + Linsitinib; first compound 0.8 µM
  relative viability: 0.603
SGI-1776 + Linsitinib; first compound 2.53 µM
  relative viability: 0.593
SGI-1776 + Linsitinib; first compound 8 µM
  relative viability: 0.692

## LC-2-ad
[1]; first compound 0.02 µM
  relative viability: 0.518
[1]; first compound 0.06325 µM
  relative viability: 0.484
[1]; first compound 0.2 µM
  relative viability: 0.469
[1]; first compound 0.6325 µM
  relative viability: 0.526
[1]; first compound 2 µM
  relative viability: 0.396
[2]; first compound 0.02 µM
  relative viability: 1.09
[2]; first compound 0.06325 µM
  relative viability: 1.05
[2]; first compound 0.2 µM
  relative viability: 0.998
[2]; first compound 0.6325 µM
  relative viability: 1.03
[2]; first compound 2 µM
  relative viability: 0.898
SGI-1776 + Linsitinib; first compound 0.08 µM
  relative viability: 0.842
SGI-1776 + Linsitinib; first compound 0.8 µM
  relative viability: 0.959
SGI-1776 + Linsitinib; first compound 2.53 µM
  relative viability: 0.911
SGI-1776 + Linsitinib; first compound 8 µM
  relative viability: 0.639
Entinostat + OSI-027; first compound 0.02 µM
  relative viability: 0.768
Entinostat + OSI-027; first compound 0.06325 µM
  relative viability: 0.842
Entinostat + OSI-027; first compound 0.2 µM
  relative viability: 0.578
Entinostat + OSI-027; first compound 0.6325 µM
  relative viability: 0.349
Entinostat + OSI-027; first compound 2 µM
  relative viability: 0.27

## LCLC-97TM1
[1]; first compound 0.02 µM
  relative viability: 0.226
[1]; first compound 0.06325 µM
  relative viability: 0.26
[1]; first compound 0.2 µM
  relative viability: 0.236
[1]; first compound 0.6325 µM
  relative viability: 0.323
[1]; first compound 2 µM
  relative viability: 0.162
[2]; first compound 0.02 µM
  relative viability: 0.704
[2]; first compound 0.06325 µM
  relative viability: 0.635
[2]; first compound 0.2 µM
  relative viability: 0.499
[2]; first compound 0.6325 µM
  relative viability: 0.802
[2]; first compound 2 µM
  relative viability: 0.233
SGI-1776 + Linsitinib; first compound 0.08 µM
  relative viability: 0.193
SGI-1776 + Linsitinib; first compound 0.8 µM
  relative viability: 0.154
SGI-1776 + Linsitinib; first compound 2.53 µM
  relative viability: 0.187
SGI-1776 + Linsitinib; first compound 8 µM
  relative viability: 0.16
Entinostat + OSI-027; first compound 0.02 µM
  relative viability: 0.583
Entinostat + OSI-027; first compound 0.06325 µM
  relative viability: 0.462
Entinostat + OSI-027; first compound 0.2 µM
  relative viability: 0.51
Entinostat + OSI-027; first compound 0.6325 µM
  relative viability: 0.408
Entinostat + OSI-027; first compound 2 µM
  relative viability: 0.43

## LK-2
[1]; first compound 0.02 µM
  relative viability: 0.71
[1]; first compound 0.06325 µM
  relative viability: 0.646
[1]; first compound 0.2 µM
  relative viability: 0.82
[1]; first compound 0.6325 µM
  relative viability: 0.501
[1]; first compound 2 µM
  relative viability: 0.356
SGI-1776 + Linsitinib; first compound 0.08 µM
  relative viability: 0.697
SGI-1776 + Linsitinib; first compound 0.8 µM
  relative viability: 0.773
SGI-1776 + Linsitinib; first compound 2.53 µM
  relative viability: 0.523
SGI-1776 + Linsitinib; first compound 8 µM
  relative viability: 0.418
Entinostat + OSI-027; first compound 0.02 µM
  relative viability: 0.221
Entinostat + OSI-027; first compound 0.06325 µM
  relative viability: 0.187
Entinostat + OSI-027; first compound 0.2 µM
  relative viability: 0.188
Entinostat + OSI-027; first compound 0.6325 µM
  relative viability: 0.188
Entinostat + OSI-027; first compound 2 µM
  relative viability: 0.18

## NCI-H358
[1]; first compound 0.02 µM
  relative viability: 0.119
[1]; first compound 0.06325 µM
  relative viability: 0.14
[1]; first compound 0.2 µM
  relative viability: 0.137
[1]; first compound 0.6325 µM
  relative viability: 0.145
[1]; first compound 2 µM
  relative viability: 0.108
SGI-1776 + Linsitinib; first compound 0.08 µM
  relative viability: 0.725
SGI-1776 + Linsitinib; first compound 0.8 µM
  relative viability: 0.756
SGI-1776 + Linsitinib; first compound 2.53 µM
  relative viability: 0.758
SGI-1776 + Linsitinib; first compound 8 µM
  relative viability: 0.388
Entinostat + OSI-027; first compound 0.02 µM
  relative viability: 0.879
Entinostat + OSI-027; first compound 0.06325 µM
  relative viability: 0.992
Entinostat + OSI-027; first compound 0.2 µM
  relative viability: 0.796
Entinostat + OSI-027; first compound 0.6325 µM
  relative viability: 0.496
Entinostat + OSI-027; first compound 2 µM
  relative viability: 0.169

## NCI-H522
[1]; first compound 0.02 µM
  relative viability: 0.798
[1]; first compound 0.06325 µM
  relative viability: 0.984
[1]; first compound 0.2 µM
  relative viability: 0.884
[1]; first compound 0.6325 µM
  relative viability: 0.743
[1]; first compound 2 µM
  relative viability: 0.838
Entinostat + OSI-027; first compound 0.02 µM
  relative viability: 0.84
Entinostat + OSI-027; first compound 0.06325 µM
  relative viability: 0.764
Entinostat + OSI-027; first compound 0.2 µM
  relative viability: 0.85
Entinostat + OSI-027; first compound 0.6325 µM
  relative viability: 0.688
Entinostat + OSI-027; first compound 2 µM
  relative viability: 0.555

## NCI-H596
[2]; first compound 0.02 µM
  relative viability: 0.9
[2]; first compound 0.06325 µM
  relative viability: 1.21
[2]; first compound 0.2 µM
  relative viability: 0.963
[2]; first compound 0.6325 µM
  relative viability: 1
[2]; first compound 2 µM
  relative viability: 0.684
SGI-1776 + Linsitinib; first compound 0.08 µM
  relative viability: 1.05
SGI-1776 + Linsitinib; first compound 0.8 µM
  relative viability: 0.999
SGI-1776 + Linsitinib; first compound 2.53 µM
  relative viability: 0.981
SGI-1776 + Linsitinib; first compound 8 µM
  relative viability: 0.943
Entinostat + OSI-027; first compound 0.02 µM
  relative viability: 0.716
Entinostat + OSI-027; first compound 0.06325 µM
  relative viability: 0.804
Entinostat + OSI-027; first compound 0.2 µM
  relative viability: 0.708
Entinostat + OSI-027; first compound 0.6325 µM
  relative viability: 0.443
Entinostat + OSI-027; first compound 2 µM
  relative viability: 0.412
